# In patent US20100041621A1, “METHODS AND COMPOSITIONS FOR IMPROVING COGNITIVE PERFORMANCE” (priority 2008, published 2010):
# Tests used:
# [1] = tested on: axial brain slice through the frontal and occipital cortices; settings: elderly subjects (69.4±5.6 years), 6 weeks of treatment, 1.5 Tesla; cited from earlier work
# [2] = tested on: anterior cingulate cortex (ACC); assay: 31P MRSI (3D-CSI, 4 Tesla) of phosphorus metabolites in the anterior cingulate cortex after six weeks of oral citicoline; assay type: in vivo, human; settings: 6 weeks, doses pooled, mean ± SD
# Excerpt: (§1) ^31P data were collected using a three-dimensional chemical shift imaging (3D-CSI) technique at 4 Tesla in healthy middle-aged individuals. The use of 3D-CSI at high field has several advantages over previous methods: 1) increased spectral dispersion, which allows for increased precision of metabolite quantification; 2) post-processing grid shifting that allows for 3D placement of voxels of interest; and 3) the ability to co-register voxel placement between baseline and post-treatment follow-up. High-energy metabolite peaks quantified in the present study include phosphocreatine (PCr), β-nucleoside triphosphate (NTP, ATP in brain), and inorganic phosphate (Pi). Phospholipid membrane metabolite peaks quantified include anabolites, phosphomonoesters (PME), including phosphoethanolamine (PE) and phosphocholine (PC), and catabolites, phosphodiesters (PDE), including glycerophosphoethanolamine (GPE) and glycerolphosphocholine (GPC). A region of interest approach was used to examine phosphorus metabolite levels in the anterior cingulate cortex (ACC), given the notable age-related decline in frontal brain metabolism and impairment of frontally-mediated cognitive functions. A comparison region placed in the parieto-occipital cortex (POC) was also evaluated. It was hypothesized that oral supplementation with citicoline would improve frontal bioenergetic metabolism via elevations in availability of high-energy phosphates, as well as alteration of membrane phospholipid turnover by providing additional membrane precursors.
# (§2) Subjects included sixteen neurologically and psychiatrically healthy adults (mean age=47.3±5.4 years; 8 females, 8 males). Trained research technicians administered a structured clinical psychiatric interview using the Structured Clinical Interview for DSM-IV (SCID). All subjects were free of Axis I diagnoses, neurological illness, severe medical problems, and psychoactive substance use.
# (§3) Subjects were randomly assigned to receive a six-week supply of either 500 mg (4 males and 4 females) or 2000 mg (4 males and 4 females) of Cognizin® Citicoline (Kyowa Hakko Kogyo Co., Ltd., JAPAN). Subjects were instructed to take one capsule every day (500 mg group) or four capsules every day in a single dose (2000 mg group) for six weeks. […] Magnetic resonance spectroscopy (MRS) was completed on all subjects in two imaging sessions: one prior to beginning treatment (baseline) and one after completing six weeks of treatment.
# (§4) All proton imaging was performed using the proton channel of the dual tuned open face proton-phosphorus TEM whole-head coil from Bioengineering Inc. (Minneapolis, Minn.) operating at a nominal frequency of 170.3 MHz. A 2D gradient-recalled echo imaging sequence (12 seconds duration) was used to acquire a single image in all three spatial dimensions (sagittal, coronal, axial) to quickly determine the patient's position and angle. High-contrast, T1-weighted sagittal, coronal images as well as T1 and T2-weighted transverse images of the entire brain were acquired using a three-dimensional, magnetization-prepared FLASH imaging sequence (3D-MP FLASH), allowing for clear segmentation between grey-matter, white-matter, and CSF, as well as clearly delineating between the different anatomical regions of interest. This approach was used to optimize […] voxel positioning, and volumetric correction in the regions of interest.
# (§5) Phosphorus MRSI was performed using the phosphorus channel of the dual tuned proton-phosphorus TEM whole-head coil from Bioengineering Inc. (Minneapolis, Minn.) operating at 68.9 MHz. Phosphorus MRSI data were recorded using a three-dimensional chemical shift imaging (3D-CSI) sequence (Garraux, Neuroimage 10:149-162, 1999). […]
# [3] = tested on: parieto-occipital cortex (POC); assay: 31P MRSI (3D-CSI, 4 Tesla) of phosphorus metabolites in the parieto-occipital cortex (comparison region) after six weeks of oral citicoline; assay type: in vivo, human
# Excerpt: as §1, §2, §3, §4, §5
# [4] = POC, six weeks, at either dose (500 or 2000 mg)
compound,measurement,setting,value
"C[N+](C)(C)CCOP(=O)(O)OP(=O)([O-])OC[C@H]1O[C@@H](n2ccc(N)nc2=O)[C@H](O)[C@@H]1O [citicoline, CDP-choline]","change in phosphodiesters (PDE, phospholipid membrane catabolites)",[1],significant increase
same,"PC, metabolite ratio relative to total 31P signal","[2]; baseline .026 ± .010, p .02",.019 ± .008
same,"GPE, metabolite ratio relative to total 31P signal","[2]; baseline .039 ± .010, p .01",.030 ± .009
same,"PE, metabolite ratio relative to total 31P signal","[2]; baseline .043 ± .015, p .04",.054 ± .008
same,"GPC, metabolite ratio relative to total 31P signal","[2]; baseline .051 ± .015, ns",.047 ± .016
same,"β-NTP, metabolite ratio relative to total 31P signal","[2]; baseline .066 ± .012, p .05",.075 ± .014
same,"PME, metabolite ratio relative to total 31P signal","[2]; baseline .069 ± .016, ns",.073 ± .012
same,"Pi, metabolite ratio relative to total 31P signal","[2]; baseline .073 ± .012, p .15",.065 ± .022
same,change in phospholipid membrane metabolites,"[3]; POC region of interest, baseline vs six weeks",No significant changes
same,"PC, metabolite ratio relative to total 31P signal","[3]; POC, 6 weeks, doses pooled, mean ± SD, baseline .023 ± .009, ns",.026 ± .012
same,"GPE, metabolite ratio relative to total 31P signal","[3]; POC, 6 weeks, doses pooled, mean ± SD, baseline .034 ± .011, ns",.032 ± .014
same,"GPC, metabolite ratio relative to total 31P signal","[3]; POC, 6 weeks, doses pooled, mean ± SD, baseline .047 ± .017, ns",.047 ± .010
same,"β-NTP, metabolite ratio relative to total 31P signal","[3]; POC, 6 weeks, doses pooled, mean ± SD, baseline .063 ± .009, ns",.066 ± .010
same,"PE, metabolite ratio relative to total 31P signal","[3]; POC, 6 weeks, doses pooled, mean ± SD, baseline .065 ± .009, ns",.058 ± .010
same,"Pi, metabolite ratio relative to total 31P signal","[3]; POC, 6 weeks, doses pooled, mean ± SD, baseline .072 ± .010, ns",.075 ± .013
same,"PME, metabolite ratio relative to total 31P signal","[3]; POC, 6 weeks, doses pooled, mean ± SD, baseline .088 ± .015, ns",.084 ± .011
same,change in PCr/Pi ratio,[3]; [4],No changes
same,change in Pi,[3]; [4],No changes
